Experimental data reported in ChEMBL document CHEMBL1201862, “PubChem BioAssay data set” (2004).
Active and inactive are the calls of the source.

Columns and labels:
INS1 [1] = assay: protection of INS-1E cells from cytokine death, dose response, ATP luminescence, dry powder (AID 488844); assay type: functional, cell-based; conditions: Rattus norvegicus
INS1 [2] = assay: protection from cytokine-induced mitochondrial depolarization, dose response, cell-based, INS-1E, JC-1 fluorescence ratio, dry powder (AID 488931); assay type: functional; conditions: Rattus norvegicus
INS1 [3] = assay: protection from cytokine-driven beta-cell apoptosis, dose response, JC-1 fluorescence, INS-1E, dry powder, set 2 (AID 488867); assay type: functional, cell-based; conditions: Rattus norvegicus
[4] = molecular target: T1, Sentrin-specific protease 7 (Homo sapiens, UniProt Q9BQF6); assay: SENP7 protease inhibitors, SAR follow-up, biochemical, luminescence (AID 504497); assay type: functional
T1 sequence (Q9BQF6 whole entry): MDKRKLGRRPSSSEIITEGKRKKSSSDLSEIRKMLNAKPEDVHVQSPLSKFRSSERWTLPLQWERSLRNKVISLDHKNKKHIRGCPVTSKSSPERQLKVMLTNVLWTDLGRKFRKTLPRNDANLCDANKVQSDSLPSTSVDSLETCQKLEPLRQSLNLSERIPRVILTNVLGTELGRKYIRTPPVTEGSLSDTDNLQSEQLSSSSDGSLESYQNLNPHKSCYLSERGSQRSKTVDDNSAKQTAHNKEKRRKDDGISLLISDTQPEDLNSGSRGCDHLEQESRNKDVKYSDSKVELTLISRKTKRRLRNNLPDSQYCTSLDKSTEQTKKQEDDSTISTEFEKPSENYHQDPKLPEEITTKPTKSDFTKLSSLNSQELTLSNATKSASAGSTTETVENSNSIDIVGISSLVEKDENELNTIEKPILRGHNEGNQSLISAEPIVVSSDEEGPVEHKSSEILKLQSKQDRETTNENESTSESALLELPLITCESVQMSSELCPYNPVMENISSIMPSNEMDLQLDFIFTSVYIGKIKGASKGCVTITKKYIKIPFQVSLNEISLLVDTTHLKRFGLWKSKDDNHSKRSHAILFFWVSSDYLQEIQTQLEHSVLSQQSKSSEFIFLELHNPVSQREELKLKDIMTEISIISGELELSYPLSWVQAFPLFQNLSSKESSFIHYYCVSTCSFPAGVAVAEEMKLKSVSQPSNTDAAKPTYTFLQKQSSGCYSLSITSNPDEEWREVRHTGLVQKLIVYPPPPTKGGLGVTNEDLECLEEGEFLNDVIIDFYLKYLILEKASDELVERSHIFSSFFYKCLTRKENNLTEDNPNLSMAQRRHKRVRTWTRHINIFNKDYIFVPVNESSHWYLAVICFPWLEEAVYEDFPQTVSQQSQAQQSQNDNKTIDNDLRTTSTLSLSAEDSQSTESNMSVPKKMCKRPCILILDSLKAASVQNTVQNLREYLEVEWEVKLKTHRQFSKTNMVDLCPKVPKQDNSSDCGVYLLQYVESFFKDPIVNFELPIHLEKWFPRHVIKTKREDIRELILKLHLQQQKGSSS

[5] = molecular target: T2, Sentrin-specific protease 8 (Homo sapiens, UniProt Q96LD8); assay: SENP8 protease inhibitors, SAR follow-up, biochemical, luminescence (AID 504501); assay type: functional
T2 sequence (Q96LD8 whole entry): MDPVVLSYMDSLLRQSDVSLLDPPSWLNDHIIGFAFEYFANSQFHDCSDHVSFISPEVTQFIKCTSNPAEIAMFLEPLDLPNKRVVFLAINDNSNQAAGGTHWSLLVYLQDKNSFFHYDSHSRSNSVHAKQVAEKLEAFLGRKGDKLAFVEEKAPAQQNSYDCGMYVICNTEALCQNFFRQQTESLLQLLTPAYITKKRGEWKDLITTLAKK

[6] = molecular target: T3, Sentrin-specific protease 6 (Homo sapiens, UniProt Q9GZR1); assay: SAR Analysis of small molecule inhibitors of Sentrin-specific protease 6 (SENP6) using a Luminescent assay. [Related pubchem assays (depositor defined):AID2582, AID2599]; assay type: functional
T3 sequence (Q9GZR1 whole entry): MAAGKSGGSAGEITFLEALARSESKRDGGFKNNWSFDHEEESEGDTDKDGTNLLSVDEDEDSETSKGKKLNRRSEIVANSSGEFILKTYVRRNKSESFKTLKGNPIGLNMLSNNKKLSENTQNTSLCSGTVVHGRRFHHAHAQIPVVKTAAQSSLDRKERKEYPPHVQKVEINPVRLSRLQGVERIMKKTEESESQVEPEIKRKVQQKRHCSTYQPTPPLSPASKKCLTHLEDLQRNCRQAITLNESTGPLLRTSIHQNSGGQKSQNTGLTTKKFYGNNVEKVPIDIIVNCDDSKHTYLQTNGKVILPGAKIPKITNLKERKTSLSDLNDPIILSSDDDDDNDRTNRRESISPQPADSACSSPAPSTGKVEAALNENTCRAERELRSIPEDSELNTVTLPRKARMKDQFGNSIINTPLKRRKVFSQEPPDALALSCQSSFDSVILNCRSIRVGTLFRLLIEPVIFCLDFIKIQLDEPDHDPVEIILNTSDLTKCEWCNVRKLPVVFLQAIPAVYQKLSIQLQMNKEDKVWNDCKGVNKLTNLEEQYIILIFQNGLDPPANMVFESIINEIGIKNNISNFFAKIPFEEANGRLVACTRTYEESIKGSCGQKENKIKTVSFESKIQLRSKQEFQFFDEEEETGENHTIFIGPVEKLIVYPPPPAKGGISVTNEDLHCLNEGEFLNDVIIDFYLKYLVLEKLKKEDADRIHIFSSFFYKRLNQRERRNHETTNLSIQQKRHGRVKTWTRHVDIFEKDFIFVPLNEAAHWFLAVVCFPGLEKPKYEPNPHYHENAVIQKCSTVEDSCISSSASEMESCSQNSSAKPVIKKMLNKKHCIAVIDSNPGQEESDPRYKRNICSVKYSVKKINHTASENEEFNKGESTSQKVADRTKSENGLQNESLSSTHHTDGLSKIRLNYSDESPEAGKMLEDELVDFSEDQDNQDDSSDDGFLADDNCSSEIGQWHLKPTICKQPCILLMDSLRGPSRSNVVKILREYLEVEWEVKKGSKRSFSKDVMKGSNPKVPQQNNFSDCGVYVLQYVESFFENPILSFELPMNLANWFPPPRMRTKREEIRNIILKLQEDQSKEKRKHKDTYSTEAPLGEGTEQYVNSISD

Caspase-3 = molecular target: T4, Caspase-3 (Homo sapiens, UniProt P42574); assay: SAR Analysis of small molecule inhibitors of Sentrin-specific proteases (SENPs) using a Caspase-3 Selectivity assay. [Related pubchem assays (depositor defined):AID2540, AID2599, AID434973, AID489001]; assay type: functional
T4 sequence (P42574 whole entry): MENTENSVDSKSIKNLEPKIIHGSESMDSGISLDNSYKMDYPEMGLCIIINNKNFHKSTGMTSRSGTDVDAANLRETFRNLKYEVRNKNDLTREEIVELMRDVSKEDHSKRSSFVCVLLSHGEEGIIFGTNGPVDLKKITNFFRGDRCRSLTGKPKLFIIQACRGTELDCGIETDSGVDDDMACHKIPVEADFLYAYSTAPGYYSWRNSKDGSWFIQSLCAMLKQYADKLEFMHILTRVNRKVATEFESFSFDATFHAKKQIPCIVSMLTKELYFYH

[7] = insulin promoter down-regulators in MIN6 cells, imaging, high-content screening, mouse beta cells (AID 1628); assay type: functional
[8] = inhibitors of SNCA 5'UTR-driven reporter translation, confirmation, H4 neuroglioma cells, luminescence (AID 1988); assay type: functional, cell-based
[9] = Luminescence Cell-Based Dose Response HTS to Identify Inhibitors of 5'UTR Stem-Loop Driven Prion Protein mRNA Translation in H4 Neuroglioblastoma Cells. [Related pubchem assays: 1827 (Project Summary), 1813 (Primary HTS)]; assay type: functional
[10] = molecular target: Luciferin 4-monooxygenase (Photuris pensylvanica, UniProt Q27757); assay: firefly luciferase enzyme inhibitors, dose response, counter-screen for HSF-1 reporter inhibitor project, biochemical, Cell Titer Glo, luminescence, cherry-picks (AID 588847)
[11] = cytotoxicity in MIN6 insulinoma cells, dose response, cytotoxicity control, cell-based, mouse insulinoma (AID 2122); assay type: functional;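 further: confirmatory high-throughput counterscreen run to flag cytotoxic compounds; mouse MIN-6 beta cells carrying an insulin promoter eGFP reporter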
[12] = inhibitors of firefly luciferase expression or activity, dose response, H4 neuroglioma cells, luminescence (AID 1990); assay type: functional, cell-based

Luciferin 4-monooxygenase, sequence (Q27757 whole entry): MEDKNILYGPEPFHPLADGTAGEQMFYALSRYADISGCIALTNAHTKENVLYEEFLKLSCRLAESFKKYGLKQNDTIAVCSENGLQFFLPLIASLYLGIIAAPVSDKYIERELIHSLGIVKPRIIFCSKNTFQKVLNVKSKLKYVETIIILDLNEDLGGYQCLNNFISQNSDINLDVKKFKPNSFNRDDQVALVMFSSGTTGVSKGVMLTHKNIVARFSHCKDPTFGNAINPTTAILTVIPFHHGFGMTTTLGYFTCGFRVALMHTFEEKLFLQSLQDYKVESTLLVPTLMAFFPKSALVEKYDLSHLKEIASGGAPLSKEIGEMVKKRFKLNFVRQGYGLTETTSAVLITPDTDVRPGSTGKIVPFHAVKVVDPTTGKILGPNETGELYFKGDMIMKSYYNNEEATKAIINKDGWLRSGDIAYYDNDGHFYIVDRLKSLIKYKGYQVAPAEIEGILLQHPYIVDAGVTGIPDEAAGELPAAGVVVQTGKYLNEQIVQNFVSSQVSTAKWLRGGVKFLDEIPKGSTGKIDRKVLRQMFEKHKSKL

COc1ccc(S(=O)(=O)N(C)C[C@@H]2Oc3c(NC(=O)Nc4ccccc4)cccc3C(=O)N([C@H](C)CO)C[C@H]2C)cc1
AC50 (INS1 [1]): 22.8 µM (active) | AC50 (INS1 [2]): > 195 µM (inactive) | AC50 (INS1 [3]): > 260 µM (inactive)

Cc1ccc(NC(=O)c2ccc(OC3CSC3)cc2)cc1
IC50 [4]: > 99 µM (inactive) | IC50 [5]: > 99 µM (inactive) | IC50 [6]: > 99 µM (inactive) | IC50 (Caspase-3): > 99 µM (inactive)

C[C@@H]1C[C@H]2[C@@H]3CCC4=CC(=O)C=C[C@]4(C)[C@@]3(F)[C@@H](O)C[C@]2(C)[C@@]1(O)C(=O)CO [DEXAMETHASONE]
IC50 [7]: < 250 nM (active) | EC50 [8]: > 120 µM (not active) | EC50 [9]: > 120 µM (not active) | AC50 [10]: > 52 µM (inactive) | IC50 [11]: > 16 µM (inactive) | EC50 [12]: > 120 µM (not active)
